Measured values as given in paper PMC6374638, “Evolutionary Relationships Between the Laccase Genes of Polyporales: Orthology-Based Classification of Laccase Isozymes and Functional Insight From Trametes hirsuta” (Frontiers in Microbiology, 2019).
Read-outs that look alike come from different tables or passages of the source.

What was measured:
rLacC [1] = test system: T1, rLacC; experiment: spectrophotometric oxidation assay, […] nm, non-linear fit; type: biochemical, Trametes hirsuta; conditions: 0.1 M citrate-phosphate pH 4.5, 24°C
T1 construct: gene lacC; recombinant secreted laccase, obtained previously (Savinova et al., 2017)

rLacC [2] = test system: T1, rLacC; experiment: as above; type: biochemical, Trametes hirsuta; conditions: 0.1 M citrate-phosphate pH 4.5, 24°C; remark: listed apart in the source
rLacC [3] = test system: T2, rLacC; conditions: read-out: KM, μM / rLacC; 0.1 M citrate-phosphate pH 4.5, 24°C
T2 construct: gene lacC

rLacC [4] = test system: T1, rLacC; experiment: spectrophotometric oxidation assay, […] nm, non-linear fit; type: biochemical, Trametes hirsuta; conditions: 0.1 M citrate-phosphate pH 4.5, 24°C; remark: listed apart in the source
rLacC [5] = test system: T1, rLacC; experiment: as above; type: biochemical, Trametes hirsuta; conditions: 0.1 M citrate-phosphate pH 4.5, 24°C; remark: listed apart in the source
LacA = target: T3, LacA (Trametes hirsuta, UniProt A0A0A7M685); experiment: as above; type: biochemical; conditions: 0.1 M citrate-phosphate pH 4.5, 24°C; cited from earlier work
T3 construct: native major secreted laccase, purified previously (Savinova et al., 2017)
T3 sequence (A0A0A7M685 22-520): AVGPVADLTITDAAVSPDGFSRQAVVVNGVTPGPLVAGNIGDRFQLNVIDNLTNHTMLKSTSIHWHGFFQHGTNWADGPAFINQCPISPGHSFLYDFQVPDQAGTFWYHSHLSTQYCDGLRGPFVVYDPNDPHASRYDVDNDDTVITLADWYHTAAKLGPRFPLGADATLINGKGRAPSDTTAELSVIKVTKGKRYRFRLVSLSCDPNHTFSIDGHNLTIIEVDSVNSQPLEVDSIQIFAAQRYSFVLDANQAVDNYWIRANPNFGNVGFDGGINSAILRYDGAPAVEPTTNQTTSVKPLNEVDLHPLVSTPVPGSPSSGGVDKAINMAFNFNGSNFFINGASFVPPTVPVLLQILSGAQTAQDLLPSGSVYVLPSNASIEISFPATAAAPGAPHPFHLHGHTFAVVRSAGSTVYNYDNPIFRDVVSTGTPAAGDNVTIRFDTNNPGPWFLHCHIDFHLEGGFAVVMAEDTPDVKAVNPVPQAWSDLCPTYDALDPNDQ

In the case of `COc1cccc(OC)c1O` [2,6-DMP, 2,6-dimethoxyphenol], the Km (rLacC [1]) is reported as 589 ± 75 µM.

With `Oc1ccccc1O` [Catechol] the Km (rLacC [2]) was 16300 ± 1720 µM.

For `COc1cc(/C=C/C(=O)O)ccc1O` [Ferulic acid], the Km (rLacC [3]) was 173 ± 38 µM.

For `COc1ccccc1O` [Guaiacol], the Km (rLacC [4]) was 15700 ± 337 µM.

In the case of `COc1cc(/C=C/C(=O)O)cc(OC)c1O` [Synapic acid], the Km (rLacC [5]) is given as 71 ± 14 µM and the Km (LacA) is given as 17 ± 2 µM.
